Source: ChEMBL document CHEMBL1142695, “Discovery of functionally selective 7,8,9,10-tetrahydro-7,10-ethano-1,2,4-triazolo[3,4-a]phthalazines as GABA A receptor agonists at the alpha3 subunit” (J Med Chem, 2005)

What was measured:
Type in all cases: cell-based
[1] = target: T1, GABA-A receptor; alpha-2/beta-3/gamma-2 (Homo sapiens, UniProt P18507+P28472+P47869); assay: Inhibition of [3H]Ro-151788 binding to recombinant human gamma-aminobutyric acid A receptor alpha-2-beta-3-gamma-2 subtype expressed in L (tk-) cells
T1 sequence (P18507 whole entry): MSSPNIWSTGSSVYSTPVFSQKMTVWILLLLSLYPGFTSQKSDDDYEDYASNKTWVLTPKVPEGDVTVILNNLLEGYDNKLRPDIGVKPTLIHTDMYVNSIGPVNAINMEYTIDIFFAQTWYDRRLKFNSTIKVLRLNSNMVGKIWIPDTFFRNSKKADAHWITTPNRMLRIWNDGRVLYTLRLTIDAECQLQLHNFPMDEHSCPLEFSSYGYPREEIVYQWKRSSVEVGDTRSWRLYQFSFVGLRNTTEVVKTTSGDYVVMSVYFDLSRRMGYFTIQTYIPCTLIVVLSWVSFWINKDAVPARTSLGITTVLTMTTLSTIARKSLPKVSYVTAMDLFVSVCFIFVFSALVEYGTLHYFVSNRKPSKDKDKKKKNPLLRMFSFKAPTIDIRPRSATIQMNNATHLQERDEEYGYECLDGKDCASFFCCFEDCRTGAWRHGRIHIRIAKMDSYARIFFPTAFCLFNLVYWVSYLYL
T1 sequence (P28472 whole entry): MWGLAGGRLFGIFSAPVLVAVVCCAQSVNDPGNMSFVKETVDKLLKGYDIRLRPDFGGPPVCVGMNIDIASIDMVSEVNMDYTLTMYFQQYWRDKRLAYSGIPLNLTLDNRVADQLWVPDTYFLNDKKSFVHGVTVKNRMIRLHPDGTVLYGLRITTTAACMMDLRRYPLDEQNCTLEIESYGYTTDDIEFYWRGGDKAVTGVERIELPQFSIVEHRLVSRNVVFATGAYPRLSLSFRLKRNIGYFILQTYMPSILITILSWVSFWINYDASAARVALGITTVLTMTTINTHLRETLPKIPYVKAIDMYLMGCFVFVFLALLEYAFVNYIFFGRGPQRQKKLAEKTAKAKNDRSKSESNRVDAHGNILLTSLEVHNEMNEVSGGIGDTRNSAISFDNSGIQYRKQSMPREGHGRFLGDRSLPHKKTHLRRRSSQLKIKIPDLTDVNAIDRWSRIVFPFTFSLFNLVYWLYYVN
T1 sequence (P47869 whole entry): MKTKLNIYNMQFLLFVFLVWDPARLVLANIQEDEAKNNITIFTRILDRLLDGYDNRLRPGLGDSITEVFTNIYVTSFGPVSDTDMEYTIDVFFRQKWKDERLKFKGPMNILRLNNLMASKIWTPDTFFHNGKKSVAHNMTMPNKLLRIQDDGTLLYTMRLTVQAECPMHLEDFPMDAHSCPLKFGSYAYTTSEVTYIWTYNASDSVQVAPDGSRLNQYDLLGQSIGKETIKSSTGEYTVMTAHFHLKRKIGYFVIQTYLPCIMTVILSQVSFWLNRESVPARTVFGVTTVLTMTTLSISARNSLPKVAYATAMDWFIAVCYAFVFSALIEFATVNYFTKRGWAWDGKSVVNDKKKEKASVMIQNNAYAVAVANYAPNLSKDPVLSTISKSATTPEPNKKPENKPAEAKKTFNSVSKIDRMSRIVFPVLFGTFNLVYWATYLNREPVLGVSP

[2] = target: T2, GABA-A receptor; alpha-3/beta-3/gamma-2 (Homo sapiens, UniProt P18507+P28472+P34903); assay: Inhibition of [3H]Ro-151788 binding to recombinant human gamma-aminobutyric-acid A receptor alpha-3-beta-3-gamma-2 subtype expressed in L (tk-) cells
T2 sequence (P18507 whole entry): T1 sequence (P18507 whole entry)
T2 sequence (P28472 whole entry): T1 sequence (P28472 whole entry)
T2 sequence (P34903 whole entry): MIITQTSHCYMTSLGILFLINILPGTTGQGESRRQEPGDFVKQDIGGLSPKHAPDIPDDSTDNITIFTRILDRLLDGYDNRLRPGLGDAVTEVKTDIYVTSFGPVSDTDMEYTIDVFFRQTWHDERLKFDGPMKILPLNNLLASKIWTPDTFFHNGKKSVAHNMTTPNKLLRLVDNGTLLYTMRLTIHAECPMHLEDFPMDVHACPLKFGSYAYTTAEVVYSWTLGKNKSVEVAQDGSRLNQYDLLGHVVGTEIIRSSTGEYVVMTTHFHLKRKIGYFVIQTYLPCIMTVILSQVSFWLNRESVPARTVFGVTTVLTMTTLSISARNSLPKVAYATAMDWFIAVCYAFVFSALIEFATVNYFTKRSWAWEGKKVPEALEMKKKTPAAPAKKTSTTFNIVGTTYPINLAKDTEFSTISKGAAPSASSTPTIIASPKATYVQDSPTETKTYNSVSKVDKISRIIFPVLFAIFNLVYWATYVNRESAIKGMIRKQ

[3] = target: T3, GABA-A receptor; alpha-5/beta-3/gamma-2 (Homo sapiens, UniProt P18507+P28472+P31644); assay: Inhibition of [3H]Ro-151788 binding to recombinant human gamma-aminobutyric-acid A receptor alpha-5-beta-3-gamma-2 subtype expressed in L (tk-) cells
T3 sequence (P18507 whole entry): T1 sequence (P18507 whole entry)
T3 sequence (P28472 whole entry): T1 sequence (P28472 whole entry)
T3 sequence (P31644 whole entry): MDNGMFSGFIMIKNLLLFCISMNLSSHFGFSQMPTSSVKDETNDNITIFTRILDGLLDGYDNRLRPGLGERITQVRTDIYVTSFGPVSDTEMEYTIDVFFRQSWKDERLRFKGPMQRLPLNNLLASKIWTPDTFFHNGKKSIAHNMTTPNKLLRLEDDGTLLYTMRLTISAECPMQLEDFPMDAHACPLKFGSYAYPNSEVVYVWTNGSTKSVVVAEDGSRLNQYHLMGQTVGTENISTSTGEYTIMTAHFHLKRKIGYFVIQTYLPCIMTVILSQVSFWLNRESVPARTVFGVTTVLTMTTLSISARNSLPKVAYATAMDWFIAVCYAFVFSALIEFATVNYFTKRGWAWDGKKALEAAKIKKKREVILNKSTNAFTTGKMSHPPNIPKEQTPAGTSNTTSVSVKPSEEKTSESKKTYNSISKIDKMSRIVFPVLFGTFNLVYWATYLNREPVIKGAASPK

[4] = target: T4, GABA-A receptor; alpha-1/beta-3/gamma-2 (Homo sapiens, UniProt P14867+P18507+P28472); assay: Inhibition of [3H]Ro-151788 binding to recombinant human gamma-aminobutyric-acid A receptor alpha-1-beta-3-gamma-2 subtype expressed in L (tk-) cells
T4 sequence (P14867 whole entry): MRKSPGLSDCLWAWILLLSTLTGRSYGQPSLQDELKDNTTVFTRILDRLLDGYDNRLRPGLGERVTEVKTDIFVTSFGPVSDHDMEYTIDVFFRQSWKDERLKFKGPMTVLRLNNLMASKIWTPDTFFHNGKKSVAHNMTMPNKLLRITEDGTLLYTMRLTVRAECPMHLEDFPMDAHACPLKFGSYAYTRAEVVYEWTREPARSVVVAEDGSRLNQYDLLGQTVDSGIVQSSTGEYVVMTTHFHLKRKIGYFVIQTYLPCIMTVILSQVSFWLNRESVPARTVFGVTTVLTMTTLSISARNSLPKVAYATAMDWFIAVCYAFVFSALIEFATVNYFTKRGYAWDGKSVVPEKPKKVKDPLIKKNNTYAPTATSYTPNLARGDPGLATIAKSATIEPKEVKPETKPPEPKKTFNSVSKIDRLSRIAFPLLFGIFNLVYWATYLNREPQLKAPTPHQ
T4 sequence (P18507 whole entry): T1 sequence (P18507 whole entry)
T4 sequence (P28472 whole entry): T1 sequence (P28472 whole entry)

SMILES	Ki [1] [µM]	Ki [2] [µM]	Ki [3] [µM]	Ki [4] [µM]
O=C(COc1nn2c(-c3ccccc3)nnc2c2c1C1CCC2CC1)N1CCCC1	0.16	0.05	0.009	0.23
Cn1nnnc1COc1nn2c(-c3ccccc3)nnc2c2c1C1CCC2CC1	0.059	0.021	0.0044	0.078
c1ccc(-c2nnc3c4c(c(CNc5ccccn5)nn23)C2CCC4CC2)cc1	> 1	> 1	> 1	> 1
c1ccc(-c2nnc3c4c(c(COc5ccccn5)nn23)C2CCC4CC2)cc1	0.23	0.12	0.058	0.44
Cc1csc(COc2nn3c(-c4ccccc4)nnc3c3c2C2CCC3CC2)n1	0.04	0.03	0.0029	0.14
CCO[n+]1ccccc1Oc1nn2c(-c3ccccc3)nnc2c2c1C1CCC2CC1	0.39	0.55	0.064	> 1
CN1CCCCC1COc1nn2c(-c3ccccc3)nnc2c2c1C1CCC2CC1 (stereo not drawn)	> 1	> 1	> 1	> 1
Cc1cc(COc2nn3c(-c4ccccc4)nnc3c3c2C2CCC3CC2)sn1	0.13	0.099	0.011	0.21
OCc1cccc(COc2nn3c(-c4ccccc4)nnc3c3c2C2CCC3CC2)c1	0.11	0.043	0.011	0.49

Continued, values first:

Ki [1] [µM]	Ki [2] [µM]	Ki [3] [µM]	Ki [4] [µM]	SMILES
0.2	0.077	0.0095	0.48	c1ccc(-c2nnc3c4c(c(OCc5ccc6ccccc6n5)nn23)C2CCC4CC2)cc1
> 0.5	> 0.5	> 0.5	> 0.5	c1ccc(-c2nnc3c4c(c(OCc5ccsc5)nn23)C2CCC4CC2)cc1
> 0.5	> 0.5	> 0.5	> 0.5	c1ccc(-c2nnc3c4c(c(OCc5ccco5)nn23)C2CCC4CC2)cc1
0.14	0.1	0.026	> 1	Cc1csc(-c2nnc3c4c(c(OCc5ccccn5)nn23)C2CCC4CC2)n1
0.043	0.038	0.0042	0.032	c1ccc(-c2nnc3c4c(c(OCc5ncccc5OC5CCC5)nn23)C2CCC4CC2)cc1
0.18	–	0.027	0.31	Fc1ccc(-c2nnc3c4c(c(OCc5ccccn5)nn23)C2CCC4CC2)cc1
0.021	0.012	0.00077	0.035	Cc1scnc1COc1nn2c(-c3ccccc3)nnc2c2c1C1CCC2CC1
